According to PMC6658524, “Lysosomal degradation of newly formed insulin granules contributes to β cell failure in diabetes” (Nature Communications, 2019):

Columns and labels:
Test in all cases: biochemical
Parameters in all cases: Eurofins KinaseProfiler panel of 60 kinases, per cent inhibition
[1] = target: EGFR(h) (Homo sapiens, UniProt P00533)
Description: (§1) A more detailed account of the discovery, chemistry and biochemical properties of this novel class of selective p38δ inhibitors will be given elsewhere.

[2] = target: Met(h) (Homo sapiens, UniProt P08581)
Description: as §1

[3] = target: T1, Pim-1(h) (Homo sapiens, UniProt P11309)
T1 construct: gene PIM1
Description: as §1

[4] = target: T2, PI3 Kinase (p110α/p85α)(h) (Homo sapiens, UniProt P42336)
T2 construct: gene PIK3CA; p110α/p85α
Description: as §1

[5] = target: T3, PKBα(h) (Homo sapiens, UniProt P31749)
T3 construct: gene AKT1
Description: as §1

[6] = target: T4, MST2(h) (Homo sapiens, UniProt Q13188)
T4 construct: gene STK3
T4 sequence (Q13188 whole entry): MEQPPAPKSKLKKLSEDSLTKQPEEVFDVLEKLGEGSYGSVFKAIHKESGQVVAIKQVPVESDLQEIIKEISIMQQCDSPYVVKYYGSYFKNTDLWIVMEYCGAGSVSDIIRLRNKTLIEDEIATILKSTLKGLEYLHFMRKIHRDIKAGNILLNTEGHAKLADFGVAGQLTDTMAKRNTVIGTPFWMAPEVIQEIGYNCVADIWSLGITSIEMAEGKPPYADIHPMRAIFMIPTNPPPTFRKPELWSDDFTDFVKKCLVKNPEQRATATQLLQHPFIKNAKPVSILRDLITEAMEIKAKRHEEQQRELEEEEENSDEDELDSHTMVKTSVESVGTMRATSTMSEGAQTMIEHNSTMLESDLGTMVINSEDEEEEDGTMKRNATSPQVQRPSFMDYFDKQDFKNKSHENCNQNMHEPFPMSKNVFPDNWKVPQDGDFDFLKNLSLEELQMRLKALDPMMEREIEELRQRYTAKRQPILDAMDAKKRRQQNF
Description: as §1

[7] = target: T5, GSK3α(h) (Homo sapiens, UniProt P49840)
T5 construct: gene GSK3A
Description: as §1

[8] = target: BTK(h) (Homo sapiens, UniProt Q06187)
Sequence of BTK(h) (Q06187 whole entry): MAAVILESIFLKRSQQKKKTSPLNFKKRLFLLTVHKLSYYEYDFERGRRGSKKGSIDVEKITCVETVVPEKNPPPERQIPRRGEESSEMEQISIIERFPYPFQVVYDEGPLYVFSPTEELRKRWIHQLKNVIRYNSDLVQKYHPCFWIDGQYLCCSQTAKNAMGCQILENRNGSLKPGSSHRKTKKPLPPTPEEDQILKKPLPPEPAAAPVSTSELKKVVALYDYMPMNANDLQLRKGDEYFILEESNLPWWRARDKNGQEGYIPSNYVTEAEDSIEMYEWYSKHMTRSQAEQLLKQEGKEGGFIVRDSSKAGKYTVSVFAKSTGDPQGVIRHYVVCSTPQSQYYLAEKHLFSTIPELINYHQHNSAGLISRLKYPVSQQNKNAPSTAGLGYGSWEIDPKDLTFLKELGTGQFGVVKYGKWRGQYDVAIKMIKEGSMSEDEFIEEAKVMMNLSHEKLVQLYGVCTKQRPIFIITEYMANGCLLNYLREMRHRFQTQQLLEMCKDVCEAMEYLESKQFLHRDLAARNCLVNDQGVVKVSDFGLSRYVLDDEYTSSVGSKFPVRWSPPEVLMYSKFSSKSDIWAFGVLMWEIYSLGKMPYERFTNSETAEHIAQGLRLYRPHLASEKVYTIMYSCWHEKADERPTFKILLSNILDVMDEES
Description: as §1

[9] = target: EphB1(h) (Homo sapiens, UniProt P54762)
Description: as §1

[10] = target: T6, p70S6K(h) (Homo sapiens, UniProt P23443)
T6 construct: gene RPS6KB1
Description: as §1

[11] = target: CDK9/cyclin T1(h) (Homo sapiens, UniProt P50750)
Description: as §1

[12] = target: T7, Aurora-B(h) (Homo sapiens, UniProt Q96GD4)
T7 construct: gene AURKB
T7 sequence (Q96GD4 whole entry): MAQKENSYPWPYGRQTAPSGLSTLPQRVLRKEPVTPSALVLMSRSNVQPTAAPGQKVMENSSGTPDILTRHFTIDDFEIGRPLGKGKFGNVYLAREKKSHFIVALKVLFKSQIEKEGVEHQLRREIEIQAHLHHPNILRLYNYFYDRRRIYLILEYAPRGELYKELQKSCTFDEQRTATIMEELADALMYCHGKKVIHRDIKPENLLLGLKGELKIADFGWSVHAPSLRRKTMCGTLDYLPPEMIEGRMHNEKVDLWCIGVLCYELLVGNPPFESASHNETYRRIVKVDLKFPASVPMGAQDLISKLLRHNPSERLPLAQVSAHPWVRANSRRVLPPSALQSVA
Description: as §1

[13] = target: T8, Abl(h) (Homo sapiens, UniProt P00519)
T8 construct: gene ABL1
Description: as §1

[14] = target: T9, CDK5/p25(h) (Homo sapiens, UniProt Q00535)
T9 construct: p25
Description: as §1

[15] = target: T10, PKA(h) (Homo sapiens, UniProt P17612)
T10 construct: gene PRKACA
Description: as §1

[16] = target: T11, c-RAF(h) (Homo sapiens, UniProt P04049)
T11 construct: gene RAF1
T11 sequence (P04049 whole entry): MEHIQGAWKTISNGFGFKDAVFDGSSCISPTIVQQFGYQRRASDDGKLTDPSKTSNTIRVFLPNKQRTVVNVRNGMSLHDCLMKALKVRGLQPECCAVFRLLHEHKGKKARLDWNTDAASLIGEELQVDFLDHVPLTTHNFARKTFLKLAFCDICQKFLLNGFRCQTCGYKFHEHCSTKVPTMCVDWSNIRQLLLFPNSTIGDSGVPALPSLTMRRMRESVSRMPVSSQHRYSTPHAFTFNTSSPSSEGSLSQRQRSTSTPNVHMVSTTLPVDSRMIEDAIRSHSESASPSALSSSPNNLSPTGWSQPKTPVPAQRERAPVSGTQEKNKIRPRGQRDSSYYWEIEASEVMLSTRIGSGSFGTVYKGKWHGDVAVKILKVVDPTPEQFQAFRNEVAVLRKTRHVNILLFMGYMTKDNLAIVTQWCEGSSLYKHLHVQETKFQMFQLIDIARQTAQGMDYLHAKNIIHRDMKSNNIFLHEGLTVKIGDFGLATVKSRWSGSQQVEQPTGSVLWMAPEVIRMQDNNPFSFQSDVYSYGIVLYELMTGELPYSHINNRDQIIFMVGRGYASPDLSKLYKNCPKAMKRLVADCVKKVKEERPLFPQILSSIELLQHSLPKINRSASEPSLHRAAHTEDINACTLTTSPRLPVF
Description: as §1

[17] = target: Lyn(h) (Homo sapiens, UniProt P07948)
Description: as §1

[18] = target: ALK(h) (Homo sapiens, UniProt Q9UM73)
Description: as §1

[19] = target: T12, Pim-2(h) (Homo sapiens, UniProt Q9P1W9)
T12 construct: gene PIM2
Description: as §1

[20] = target: Syk(h) (Homo sapiens, UniProt P43405)
Description: as §1

[21] = target: T13, IKKε(h) (Homo sapiens, UniProt Q14164)
T13 construct: gene IKBKE
T13 sequence (Q14164 whole entry): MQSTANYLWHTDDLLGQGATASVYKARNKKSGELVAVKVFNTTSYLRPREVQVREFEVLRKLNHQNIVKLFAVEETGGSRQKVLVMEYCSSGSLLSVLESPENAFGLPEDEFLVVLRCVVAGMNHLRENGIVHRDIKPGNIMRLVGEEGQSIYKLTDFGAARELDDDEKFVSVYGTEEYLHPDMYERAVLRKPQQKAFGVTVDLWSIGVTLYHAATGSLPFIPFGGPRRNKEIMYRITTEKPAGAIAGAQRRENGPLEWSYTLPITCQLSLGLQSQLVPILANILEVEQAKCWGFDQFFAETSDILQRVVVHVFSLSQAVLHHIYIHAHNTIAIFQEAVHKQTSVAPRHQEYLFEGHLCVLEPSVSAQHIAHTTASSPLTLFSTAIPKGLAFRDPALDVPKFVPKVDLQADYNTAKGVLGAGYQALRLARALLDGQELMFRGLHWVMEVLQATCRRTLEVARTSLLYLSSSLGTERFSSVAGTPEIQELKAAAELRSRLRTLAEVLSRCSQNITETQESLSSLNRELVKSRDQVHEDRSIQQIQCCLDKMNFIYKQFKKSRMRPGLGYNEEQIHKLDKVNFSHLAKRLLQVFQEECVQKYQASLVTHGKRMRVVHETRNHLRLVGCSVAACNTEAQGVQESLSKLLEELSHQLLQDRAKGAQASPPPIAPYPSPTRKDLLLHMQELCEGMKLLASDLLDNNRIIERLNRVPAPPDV
Description: as §1

[22] = target: Flt3(h) (Homo sapiens, UniProt P36888)
Description: as §1

[23] = target: EphA3(h) (Homo sapiens, UniProt P29320)
Sequence of EphA3(h) (P29320 whole entry): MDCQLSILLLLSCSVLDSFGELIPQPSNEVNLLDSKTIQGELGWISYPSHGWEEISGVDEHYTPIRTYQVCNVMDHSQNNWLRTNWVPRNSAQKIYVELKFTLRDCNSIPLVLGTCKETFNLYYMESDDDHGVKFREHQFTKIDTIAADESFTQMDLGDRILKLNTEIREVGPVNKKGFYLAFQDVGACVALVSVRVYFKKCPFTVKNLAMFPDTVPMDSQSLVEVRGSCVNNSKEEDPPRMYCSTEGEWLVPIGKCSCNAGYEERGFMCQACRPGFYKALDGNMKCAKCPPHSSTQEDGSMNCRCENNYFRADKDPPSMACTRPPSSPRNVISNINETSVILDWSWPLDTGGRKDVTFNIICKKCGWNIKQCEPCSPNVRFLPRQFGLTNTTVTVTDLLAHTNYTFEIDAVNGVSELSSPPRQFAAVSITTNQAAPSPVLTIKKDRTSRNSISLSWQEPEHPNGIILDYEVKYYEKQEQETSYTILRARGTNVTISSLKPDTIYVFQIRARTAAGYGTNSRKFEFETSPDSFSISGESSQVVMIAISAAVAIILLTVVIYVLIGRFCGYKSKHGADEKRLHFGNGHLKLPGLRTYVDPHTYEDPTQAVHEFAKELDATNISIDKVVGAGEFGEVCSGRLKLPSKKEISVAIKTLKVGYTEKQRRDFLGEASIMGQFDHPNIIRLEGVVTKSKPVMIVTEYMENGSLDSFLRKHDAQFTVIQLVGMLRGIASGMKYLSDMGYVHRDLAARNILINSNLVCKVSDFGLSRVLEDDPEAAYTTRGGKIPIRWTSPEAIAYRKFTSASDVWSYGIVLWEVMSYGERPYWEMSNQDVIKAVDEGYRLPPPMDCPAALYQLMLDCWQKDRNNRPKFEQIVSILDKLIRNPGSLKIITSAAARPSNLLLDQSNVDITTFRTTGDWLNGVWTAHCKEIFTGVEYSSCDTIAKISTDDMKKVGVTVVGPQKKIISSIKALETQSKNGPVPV
Description: as §1

[24] = target: EphB4(h) (Homo sapiens, UniProt P54760)
Sequence of EphB4(h) (P54760 whole entry): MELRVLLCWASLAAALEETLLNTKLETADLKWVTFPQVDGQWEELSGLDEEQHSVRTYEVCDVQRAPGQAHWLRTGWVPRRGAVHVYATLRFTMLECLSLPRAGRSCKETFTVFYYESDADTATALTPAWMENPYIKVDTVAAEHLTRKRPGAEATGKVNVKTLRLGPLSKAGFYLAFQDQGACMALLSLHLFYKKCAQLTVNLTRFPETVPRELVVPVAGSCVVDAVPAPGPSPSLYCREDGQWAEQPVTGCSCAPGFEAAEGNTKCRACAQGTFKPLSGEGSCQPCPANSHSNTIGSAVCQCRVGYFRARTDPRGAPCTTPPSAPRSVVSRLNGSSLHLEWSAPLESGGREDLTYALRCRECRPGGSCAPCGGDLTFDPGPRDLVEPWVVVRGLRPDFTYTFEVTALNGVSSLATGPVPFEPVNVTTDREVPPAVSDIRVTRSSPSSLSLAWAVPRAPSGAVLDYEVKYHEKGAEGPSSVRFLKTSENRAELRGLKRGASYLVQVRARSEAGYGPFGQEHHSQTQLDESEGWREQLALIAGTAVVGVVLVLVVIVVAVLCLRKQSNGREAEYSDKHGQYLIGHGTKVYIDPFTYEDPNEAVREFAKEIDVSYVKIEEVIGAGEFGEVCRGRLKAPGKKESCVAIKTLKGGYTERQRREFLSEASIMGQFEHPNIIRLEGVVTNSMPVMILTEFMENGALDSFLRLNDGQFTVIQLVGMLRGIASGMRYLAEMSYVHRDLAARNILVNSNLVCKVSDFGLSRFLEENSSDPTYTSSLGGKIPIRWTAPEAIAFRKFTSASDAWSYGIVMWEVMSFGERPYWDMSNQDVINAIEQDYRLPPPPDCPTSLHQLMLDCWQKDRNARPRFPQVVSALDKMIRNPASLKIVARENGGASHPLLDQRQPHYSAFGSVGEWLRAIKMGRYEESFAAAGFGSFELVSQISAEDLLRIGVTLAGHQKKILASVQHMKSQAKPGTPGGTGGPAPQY
Description: as §1

CCN1CCOc2nc(N3CCOCC3)nc(-c3ccc(NC(=O)OC)cc3)c2C1=O [Compound A]
inhibition at 1 µM [1]: -17%
inhibition at 10 µM [1]: 4%
inhibition at 1 µM [2]: -16%
inhibition at 10 µM [2]: -7%
inhibition at 1 µM [3]: -6%
inhibition at 10 µM [3]: -7%
inhibition at 1 µM [4]: -1%
inhibition at 10 µM [4]: 2%
inhibition at 1 µM [5]: 14%
inhibition at 10 µM [5]: 17%
inhibition at 1 µM [6]: -16%
inhibition at 10 µM [6]: -2%
inhibition at 1 µM [7]: -9%
inhibition at 10 µM [7]: -7%
inhibition at 1 µM [8]: -1%
inhibition at 10 µM [8]: 0%
inhibition at 1 µM [9]: 6%
inhibition at 10 µM [9]: 10%
inhibition at 1 µM [10]: 15%
inhibition at 1 µM [11]: -16%
inhibition at 10 µM [11]: 3%
inhibition at 1 µM [12]: -24%
inhibition at 10 µM [12]: -28%
inhibition at 1 µM [13]: 6%
inhibition at 10 µM [13]: 8%
inhibition at 1 µM [14]: -2%
inhibition at 10 µM [14]: -2%
inhibition at 1 µM [15]: -8%
inhibition at 10 µM [15]: -22%
inhibition at 1 µM [16]: -5%
inhibition at 10 µM [16]: 2%
inhibition at 1 µM [17]: -2%
inhibition at 10 µM [17]: 13%
inhibition at 1 µM [18]: 4%
inhibition at 10 µM [18]: 0%
inhibition at 1 µM [19]: 8%
inhibition at 10 µM [19]: 7%
inhibition at 1 µM [20]: 4%
inhibition at 10 µM [20]: 20%
inhibition at 1 µM [21]: 16%
inhibition at 10 µM [21]: 18%
inhibition at 1 µM [22]: -30%
inhibition at 10 µM [22]: -25%
inhibition at 1 µM [23]: 8%
inhibition at 10 µM [23]: 12%
inhibition at 1 µM [24]: -3%
inhibition at 10 µM [24]: 8%
